Laboratory results as given in US20220409637A1, “COVID-19 THERAPEUTICS AND METHODS OF TREATMENT” (priority 2020, published 2022).

Assays:
[1] = test system: T. congolense-infected mice; conditions: cited from earlier work
[2] = in vivo; cited from earlier work
LD50 = type: in vivo; conditions: 70 kg human
[3] = test system: viral infection of ACE2 expressing cell monolayers (WT spike); experiment: Infectivity of ACE2 expressing cell monolayers by virus (WT spike) (FIGS. 3-6); type: cell-based; conditions: for infectivity of cells: concentrations between 1 mM and 0.01 mM
Experimental: This is equivalent to a high dose of 515 mg/kg (1 mM) to the lowest dose of 5.15 mg/kg (0.01 mM). Assuming 100% biological distribution in a 70 kg human, 10^-4M is a dose of 3.5 g and 10^-5M is 350 mg.
This is equivalent to a high dose of 515 mg/kg (1 mM) to the lowest dose of 5.15 mg/kg.

ACE2 [4] = experiment: Externalization of ACE2 on cell surface, anti-human ACE2 antibody / horseradish peroxidase staining (FIG. 2); type: cell-based; conditions: human brain endothelial cells, 10 mM Diminazene for 3 hours, n=4
Experimental: FIG. 2 is a graph of externalization of ACE2 on cell surface after treatment with diminazene. The inventors cultured human brain endothelial cells to confluency and exposed these cells to 10 mM Diminazene for 3 hours after which they were fixed in 3.7% phosphate buffered formaldehyde for 30 mins. Cells were then incubated in 1:250 rabbit antibhuman ACE2 (overnite) followed by washes and then goat anti rabbit horseradish peroxidase (1 h).

ACE2 [5] = type: cell-based

Row | Structure (SMILES) | serum pro-inflammatory cytokine levels [1] | LD50 [2] [mg/kg] | LD50 as total dose (LD50) [grams] | infectivity of cells ([3]; infectious ratio 1:100 viruses per cell, FIG. 3) | infectivity of cells ([3]; infectious ratio 5:100 viruses per cell, FIG. 4) | infectivity of cells ([3]; infectious ratio 10:100 viruses per cell, FIG. 5) | average ACE2 signal on cell surface of treated monolayers (ACE2 [4]) | infectivity of cells expressing WT spike (amount of green signal produced by viral infection) ([3]; ACE2 expressing cell monolayers, infectious ratio 5:100 viruses per cell, 1 mM to 0.01 mM, FIG. 6) | externalization of ACE2 (ACE2 [5]) | ACE2-mediated binding and signal of VSV virus-expressing COVID-spike protein in target cells (ACE2 [5]; target cells, FIG. 1)
1 | N=C(N)c1ccc(/N=N/Nc2ccc(C(=N)N)cc2)cc1 [Diminazene, 4,4′-(1-Triazene-1,3-diyl) bis(benzenecarboximidamide)] | reduces serum pro-inflammatory cytokine levels | ~350 | ~24 | dose-dependent reduction in the infectivity of cells | dose-dependent reduction in the infectivity of cells | dose-dependent reduction in the infectivity of cells | increased average signal in treated monolayers consistent with externalization of ACE2 on the cell surface | – | – | –
2 | CC(=O)NCC(=O)O.CC(=O)NCC(=O)O.N=C(N)c1ccc(N=NNc2ccc(C(=N)N)cc2)cc1 [diminazene aceturate] | – | – | – | – | – | – | – | dose-dependent reduction in the infectivity of cells expressing WT spike | concentration-dependently causes externalization of ACE2 | increases ACE2-mediated binding and signal
